Article PMC3806465, “Discovery and Evaluation of Thiazinoquinones as Anti-Protozoal Agents” (Marine Drugs, 2013)

Columns and labels:
[1] = system: Trypanosoma cruzi, Tulahuen C4 strain, amastigotes stage; assay: In vitro activity against T. cruzi; assay type: cell-based; details: Trypanosoma cruzi, TULAHUEN, Tulahuen C4, amastigotes; average of two independent assays; read-out: IC50 T. cruzi
Description: (§1) The in vitro activities against the protozoan parasites T.b. rhodesiense, T. cruzi, L. donovani, and P. falciparum and cytotoxicity assessment against L6 cells were determined as reported elsewhere.

[2] = system: Plasmodium falciparum, K1 strain, IEF stage; assay: In vitro activity against P. falciparum K1; assay type: cell-based; details: for IC50: Plasmodium falciparum, K1 dual drug resistant strain, IEF stage, average of two independent assays, read-out: IC50 P. falc. K1; for SI Pf: Selectivity index for P. falciparum = IC50 L6/IC50 Pf
Description: as §1

[3] = system: Trypanosoma brucei rhodesiense, STIB 900 strain, trypomastigotes stage; assay: In vitro activity against T. b. rhodesiense; assay type: cell-based; details: for IC50: Trypanosoma brucei, STIB 900, trypomastigotes, average of two independent assays, read-out: IC50 T. b. rhod.
Description: as §1

[4] = system: L6 rat skeletal myoblast cell line; assay: Cytotoxicity against L6 cells; assay type: cell-based; details: Rattus norvegicus, Myoblast, cytotoxicity, L6 rat skeletal myoblasts; average of two independent assays; read-out: IC50 L6
Description: as §1

[5] = system: Leishmania donovani, MHOM-ET-67/L82 strain, amastigote/axenic stage; assay: In vitro activity against L. donovani; assay type: cell-based; details: Leishmania donovani, MHOM-ET-67/L82, axenic amastigotes; average of two independent assays; read-out: IC50 L. don.
Description: as §1

[6] = system: GFP-transfected P. berghei strain ANKA; assay: In vivo anti-malarial efficacy in P. berghei infected mice; set-up: species or system NMRI mice
Description: Furan carboxylic acid analogue 16 was selected for preliminary proof-of-principle in vivo evaluation in Plasmodium berghei infected mice. […] Switching to an oral dosing experiment (100 mg/kg once per day for 4 days) yielded a 47% reduction of parasitaemia. Although not considered significant, these levels of activity for both ip and po dosing clearly identifies heterocyclic dioxothiazinoquinone carboxylic acids to be a novel anti-malarial drug scaffold warranting further structure-activity relationship studies.
In vivo anti-malarial activity was assessed as previously described. Groups of three female NMRI mice (20–22 g) were intravenously infected with 2 × 10^7 parasitized erythrocytes on day 0 with GFP-transfected P. berghei strain ANKA [24]. Compounds were formulated in 100% DMSO, diluted 10-fold in distilled water and administered intraperitoneally in a volume of 10 ml kg^−1 on four consecutive days (4, 24, 48 and 72 h post infection). Control experiments used DMSO-H2O vehicle alone. Parasitemia was determined on day 4 post infection (24 h after last treatment) by FACS analysis. Activity was calculated as the difference between the mean per cent parasitaemia for the control (n = 5 mice) and treated groups expressed as a per cent relative to the control group. The survival of the animals was usually monitored up to 30 days: a compound was considered curative if the animal survived to day 30 after infection with no detectable parasites. In vivo efficacy studies in mice were conducted according to the rules and regulations for the protection of animal rights (“Tierschutzverordnung”) of the Swiss “Bundesamt für Veterinärwesen”. They were approved by the veterinary office of Canton Basel-Stadt, Switzerland.

[7] = in vivo, 150 mg/kg

| Structure (SMILES) | IC50 [1] | IC50 [2] | SI Pf [2] | IC50 [3] | IC50 [4] | IC50 [5] | melting point | SI (T. brucei rhodesiense) ([3]; selectivity towards T. brucei rhodesiense versus L6) | reduction in parasitaemia ([6]; ip 50 (mg/kg)/day for four days) | mean survival time ([6]; ip 50 (mg/kg)/day for four days, untreated control 4–6 days) | reduction of parasitaemia ([6]; oral 100 mg/kg once per day for 4 days) | ip acute toxicity [7] |
| --- | --- | --- | --- | --- | --- | --- | --- | --- | --- | --- | --- | --- |
| O=C(NCCCc1ccccc1)c1ccc2c(n1)C(=O)C1=C(C2=O)S(=O)(=O)C=CN1 [Compound 8f, N-(3-Phenylpropyl)-5,10-dioxo-5,10-dihydro-4H-[1,4]thiazino[2,3-g]quinoline-7-carboxamide 1,1-Dioxide] | 59 µM | 1.2 µM | 5 | 5.9 µM | 6.5 µM | > 240 µM | 230 °C (dec.) |  |  |  |  |  |
| O=C(O)c1cc2c(o1)C(=O)C1=C(C2=O)S(=O)(=O)C=CN1 [Compound 17, 5,9-Dioxo-5,9-dihydro-4H-benzofuro[5,6-b][1,4]thiazine-7-carboxylic Acid 1,1-Dioxide] | > 300 µM | 0.34 µM | 560 | 2.7 µM | 190 µM | 120 µM | 280 °C (dec.) |  |  |  |  |  |
| O=C(NCCc1ccccc1)c1ccc2c(n1)C(=O)C1=C(C2=O)S(=O)(=O)C=CN1 [Compound 8e, N-Phenethyl-5,10-dioxo-5,10-dihydro-4H-[1,4]thiazino[2,3-g]quinoline-7-carboxamide 1,1-Dioxide] | 140 µM | 6.5 µM | 8 | 0.67 µM | 52 µM | 160 µM | 290 °C (dec.) | 78 |  |  |  |  |
| CC(C)=CCC/C(C)=C/CNC(=O)c1ccc2c(n1)C(=O)C1=C(C2=O)S(=O)(=O)C=CN1 [Compound 8g, (E)-N-(3,7-Dimethylocta-2,6-dien-1-yl)-5,10-dioxo-5,10-dihydro-4H-[1,4]thiazino[2,3-g] quinoline-7-carboxamide 1,1-Dioxide] | 42 µM | 1.1 µM | 4 | 2.5 µM | 4.9 µM | 150 µM | 280 °C (dec.) |  |  |  |  |  |
| O=C(O)c1cc2c(o1)C(=O)C1=C(C2=O)S(=O)(=O)CCN1 [Compound 16, 5,9-Dioxo-3,4,5,9-tetrahydro-2H-benzofuro[5,6-b][1,4]thiazine-7-carboxylic Acid 1,1-Dioxide] | > 300 µM | 0.12 µM | 2400 | 7.5 µM | 290 µM | > 300 µM |  |  | 85.7% | 9.6 days | 47% | no toxicity |
| CCCCCNC(=O)c1ccc2c(n1)C(=O)C1=C(C2=O)S(=O)(=O)C=CN1 [Compound 8b, N-n-Pentyl-5,10-dioxo-5,10-dihydro-4H-[1,4]thiazino[2,3-g]quinoline-7-carboxamide 1,1-Dioxide] | 48 µM | 1.5 µM | 3 | 3.6 µM | 4.8 µM | > 270 µM | 280 °C (dec.) |  |  |  |  |  |
| O=C(O)c1cc2c(s1)C(=O)C1=C(C2=O)S(=O)(=O)C=CN1 [Compound 12, 5,9-Dioxo-5,9-dihydro-4H-thieno[2′,3′:4,5]benzo[1,2-b][1,4]thiazine-7-carboxylic Acid 1,1-Dioxide] | 210 µM | 0.035 µM | 4000 | 2.2 µM | 140 µM | > 290 µM | 290 °C (dec.) |  |  |  |  |  |
| CCCCCNC(=O)c1ccc2c(n1)C(=O)C1=C(C2=O)S(=O)(=O)CCN1 [Compound 7b, N-n-Pentyl-5,10-dioxo-3,4,5,10-tetrahydro-2H-[1,4]thiazino[2,3-g]quinoline-7-carboxamide 1,1-Dioxide] | 15 µM | 0.62 µM | 37 | 1.8 µM | 23 µM | 29 µM | 200 °C (dec.) |  |  |  |  |  |
| O=C(NCCCc1ccccc1)c1ccc2c(n1)C(=O)C1=C(C2=O)S(=O)(=O)CCN1 [Compound 7f, N-(3-Phenylpropyl)-5,10-dioxo-3,4,5,10-tetrahydro-2H-[1,4]thiazino[2,3-g] quinoline-7-carboxamide 1,1-Dioxide] | 27 µM | 1.4 µM | 10 | 2.4 µM | 13 µM | 47 µM | 204 °C (dec.) |  |  |  |  |  |
| CCCCCCCCNC(=O)c1ccc2c(n1)C(=O)C1=C(C2=O)S(=O)(=O)CCN1 [Compound 7c, N-n-Octyl-5,10-dioxo-3,4,5,10-tetrahydro-2H-[1,4]thiazino[2,3-g]quinoline-7-carboxamide 1,1-Dioxide] | 15 µM | 1.1 µM | 10 | 3.9 µM | 12 µM | 48 µM | 200 °C (dec.) |  |  |  |  |  |
| CCCCNC(=O)c1ccc2c(n1)C(=O)C1=C(C2=O)S(=O)(=O)CCN1 [Compound 7a, N-n-Butyl-5,10-dioxo-3,4,5,10-tetrahydro-2H-[1,4]thiazino[2,3-g]quinoline-7-carboxamide 1,1-Dioxide] | 63 µM | 0.94 µM | 26 | 5.5 µM | 24 µM | > 280 µM | 200 °C (dec.) |  |  |  |  |  |
